Test results from article PMC6491784, “Para-Halogenation Affects Monoamine Transporter Inhibition Properties and Hepatocellular Toxicity of Amphetamines and Methcathinones” (Frontiers in Pharmacology, 2019).

How the values were obtained:
[1] = target: T1, human NET (Homo sapiens, UniProt P23975); assay: Norepinephrine uptake inhibition in hNET-transfected HEK 293 cells; assay type: cell-based
T1 construct: expressed in transfected cells; host or cells: HEK 293 (stably transfected)

[2] = target: T2, human DAT (Homo sapiens, UniProt Q01959); assay: Dopamine uptake inhibition in hDAT-transfected HEK 293 cells; assay type: cell-based
T2 construct: expressed in transfected cells; host or cells: HEK 293 (stably transfected)

[3] = target: T3, human SERT (Homo sapiens, UniProt P31645); assay: Serotonin uptake inhibition in hSERT-transfected HEK 293 cells; assay type: cell-based
T3 construct: expressed in transfected cells; host or cells: HEK 293 (stably transfected)

[4] = test system: HepG2 cells; assay: Cell membrane integrity (ToxiLight BioAssay); assay type: cell-based, human; conditions: HepG2, 24 h exposure; tested up to 2 mM
Procedure: Cell membrane integrity loss was assessed with the ToxiLight BioAssay Kit (Lonza, Basel, Switzerland) as a marker of cytotoxicity. Briefly, HepG2 cells were seeded in a 96-well plate at a density of 25,000 cells per well. The following day, the cells were treated with 100 μl of the compounds of interest dissolved in medium (0.25, 0.5, 1.0, and 2.0 mM of each drug, and additionally, 0.1 mM of 4-fluoroamphetamine and 4-chloroamphetamine). Triton X-100 (0.5%) was chosen as positive control to induce cell lysis. After 24 h, 50 μl of the ToxiLight assay buffer was added to 20 μl of the supernatant of the drug treatments. After 5 min incubation under shaking, luminescence was measured with a M200 Pro Infinity plate reader (Tecan, Männedorf, Switzerland) and compared to medium control. The amount of viable cells (no cell membrane integrity loss) was calculated in relation to untreated cells and cells lysed with Triton X-100, which were determined to represent 100% and 0% viable cells, respectively.
(§1) All statistical analyses were performed using GraphPad Prism 7.0c (GraphPad Software, La Jolla, CA, USA). For toxicology assays, differences between control and test drugs were calculated with ANOVA followed by Dunett’s test. p below 0.05 was considered statistically significant. Monoamine uptake data were fit by nonlinear regression to variable slope sigmoidal dose-response curves to assess IC50 values.

[5] = test system: HepG2 cells; assay: ATP content (CellTiter-Glo); assay type: cell-based, human; conditions: HepG2, 24 h exposure
Procedure: The ATP content was assessed with the CellTiter-Glo Luminescent Cell Viability Assay (Promega, Dübendorf, Switzerland). Briefly, HepG2 cells were seeded in a 96-well plate at a density of 25,000 cells per well. The following day, the cells were treated with 100 μl of the test substances dissolved in medium (0.25, 0.5, 1.0, and 2.0 mM of each drug, and additionally, 0.1 mM of 4-fluoroamphetamine and 4-chloroamphetamine). Triton X-100 (0.5%) was chosen as positive control to induce cell lysis. After 24 h incubation, 50 μl of the supernatant was discarded, and 50 μl of CellTiter-Glo reagent was added to each well. The plate was then shaken for 15 min at room temperature to induce cell lysis. Thereafter, luminescence was measured with a M200 Pro Infinity plate reader (Tecan, Männedorf, Switzerland) and compared to medium control.
as §1

[6] = test system: HepG2 cells; assay: Cellular oxygen consumption rate (Seahorse XF24); assay type: cell-based, human; conditions: HepG2, 24 h exposure; for Concentration disrupting cellular respiration: investigated range ≤2 mM; for Concentration decreasing maximal respiratory capacity: OCR after FCCP
Procedure: The cellular oxygen consumption rate (OCR) was measured with a Seahorse XF24 Analyzer (Seahorse Biosciences, North Billerica, MA, USA). Briefly, HepG2 cells were seeded in a poly-D-lysine coated Seahorse XF24 cell culture microplate at a density of 100,000 cells per well. The following day, the cells were treated with the compounds of interest dissolved in 100 μl culture medium. After 24 h incubation, the medium was removed, and the cells were washed twice with pre-warmed and unbuffered DMEM (4 mM L-glutamate, 1 mM pyruvate, 1 g/L glucose, 63.3 mM sodium chloride, pH 7.4). Thereafter, 750 μl of unbuffered DMEM was added to each well, and the plate was incubated in a CO2 free incubator for 40 min at 37°C. The ports of the XF24 assay cartridge were then loaded with oligomycin, trifluoromethoxy carbonylcyanide phenylhydrazone (FCCP), or rotenone at a final assay concentration of 1 μM, and the cartridge was loaded into the Seahorse XF24 Analyzer. First, oligomycin was injected to inhibit mitochondrial phosphorylation, allowing a quantification of proton leak. Second, oxidative phosphorylation was uncoupled from ATP synthesis by FCCP to determine the maximal respiratory capacity of the cells. Third, rotenone was injected to inhibit complex I of the electron transport chain in order to assess for extramitochondrial respiration, which was then subtracted from basal, leak, and maximal respiration. The protein content was determined using sulforhodamine B staining. The cells were fixed with 100 μl trichloroacetic acid (50% [w/v]), added to each well of the assay plate. After 1 h at 4°C, the cells were washed with deionized water and stained with sulforhodamine B (0.4% [w/v], in 1% [v/v] acetic acid). After 20 min, the cells were rapidly washed with 1% (v/v) acetic acid, and the incorporated dye was solubilized with 100 μl of 10 mM TRIS base. The absorbance was then measured at 490 nm.
as §1

[7] = test system: HepG2 cells; assay: Mitochondrial superoxide production (MitoSOX); assay type: cell-based, human; conditions: HepG2, 24 h exposure
Procedure: Briefly, HepG2 cells were seeded in a 96-well plate at a density of 25,000 cells per well. The following day, the cells were treated with 100 μl of the test substances dissolved in medium (0.25, 0.5, 1.0, and 2.0 mM of each drug, and additionally, 0.1 mM of 4-fluoroamphetamine and 4-chloroamphetamine). Amiodarone (50 μM) was included as positive control. After 24 h incubation, 100 μl of MitoSOX reagent (2.5 μM) was added to each well for 10 min at 37°C protected from light. After that, fluorescence was measured at 510/580 nm with a M200 Pro Infinity plate reader (Tecan, Männedorf, Switzerland). The protein content was assessed with the Pierce BCA Protein Assay Kit (Thermo Fisher Scientific, Basel, Switzerland).
as §1

[8] = test system: HepG2 cells; assay: Mechanisms of cell death (annexin V / propidium iodide flow cytometry); assay type: cell-based, human; conditions: HepG2, 24 h exposure; for Concentration causing significant reduction in cell viability (annexin V staining): highest concentration 2 mM; for Main mechanism of cell death: 4-chloroamphetamine at 0.5 mM
From the text: Annexin V, a Ca^2+-dependent phospholipid-binding protein that has a high affinity for phosphatidylserine, was used to determine the percentage of apoptotic cells. Phosphatidylserine is located in the inner cytoplasmic surface of intact cell membranes; in apoptotic cells, phosphatidylserine is translocated to the outer leaflet of the plasma membrane where annexin V binds to it. To assess the percentage of dead cells composed of necrotic and late apoptotic cells, propidium iodide, a red fluorescent dye not permeable to live and apoptotic cells but able to stain permeable necrotic cells by binding to the nucleic acid in the cell, was used. Briefly, 100,000 HepG2 cells per well were seeded in a 48-well plate and cultured overnight. The following day, the cells were treated with 250 μl of the compounds of interest dissolved in medium at concentrations selected based on ATP depletion and cell membrane disruption. Doxorubicin (0.5 μM) was included as positive control. After incubation for 24 h, the cells were harvested with 0.05% trypsin and washed with phosphate buffered saline (pH = 7.4). […] After 15 min incubation in the dark, the cells were analyzed with a CytoFLEX flow cytometer (Beckman Coulter, IN, USA) gating for 10,000 cells.
as §1

T1 sequence (P23975 whole entry): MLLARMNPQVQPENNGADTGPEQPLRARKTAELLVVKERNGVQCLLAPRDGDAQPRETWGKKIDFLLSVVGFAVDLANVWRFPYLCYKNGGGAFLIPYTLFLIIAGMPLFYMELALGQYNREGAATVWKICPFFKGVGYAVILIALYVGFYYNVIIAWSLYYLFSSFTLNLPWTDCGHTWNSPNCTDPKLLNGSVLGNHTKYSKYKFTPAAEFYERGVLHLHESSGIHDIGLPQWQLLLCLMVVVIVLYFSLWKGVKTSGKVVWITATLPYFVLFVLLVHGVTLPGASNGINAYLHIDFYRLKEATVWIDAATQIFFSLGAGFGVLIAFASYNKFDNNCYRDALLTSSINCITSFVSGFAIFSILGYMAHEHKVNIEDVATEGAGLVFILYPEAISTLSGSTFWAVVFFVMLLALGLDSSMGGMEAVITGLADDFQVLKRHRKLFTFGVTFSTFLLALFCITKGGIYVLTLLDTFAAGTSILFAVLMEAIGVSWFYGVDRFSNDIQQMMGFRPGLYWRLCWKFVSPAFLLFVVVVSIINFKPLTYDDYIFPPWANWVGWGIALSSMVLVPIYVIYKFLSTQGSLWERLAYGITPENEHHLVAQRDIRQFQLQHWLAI
T3 sequence (P31645 whole entry): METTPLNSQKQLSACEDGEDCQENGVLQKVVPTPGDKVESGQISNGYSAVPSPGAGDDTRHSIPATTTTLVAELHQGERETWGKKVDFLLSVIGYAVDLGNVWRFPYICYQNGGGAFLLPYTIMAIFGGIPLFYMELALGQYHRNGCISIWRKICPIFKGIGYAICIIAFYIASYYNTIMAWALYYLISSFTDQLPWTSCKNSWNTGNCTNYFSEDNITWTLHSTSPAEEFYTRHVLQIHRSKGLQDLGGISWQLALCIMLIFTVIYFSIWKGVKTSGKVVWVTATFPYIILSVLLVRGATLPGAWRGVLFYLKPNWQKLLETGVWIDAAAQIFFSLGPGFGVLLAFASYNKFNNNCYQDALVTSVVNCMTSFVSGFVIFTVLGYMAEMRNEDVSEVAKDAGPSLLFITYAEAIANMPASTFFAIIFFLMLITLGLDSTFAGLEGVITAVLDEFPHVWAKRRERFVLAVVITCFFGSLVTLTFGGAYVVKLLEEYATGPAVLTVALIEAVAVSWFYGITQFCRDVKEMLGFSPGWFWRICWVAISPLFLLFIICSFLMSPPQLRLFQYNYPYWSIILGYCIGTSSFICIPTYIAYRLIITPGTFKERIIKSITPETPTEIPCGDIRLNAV
T2 sequence (Q01959 whole entry): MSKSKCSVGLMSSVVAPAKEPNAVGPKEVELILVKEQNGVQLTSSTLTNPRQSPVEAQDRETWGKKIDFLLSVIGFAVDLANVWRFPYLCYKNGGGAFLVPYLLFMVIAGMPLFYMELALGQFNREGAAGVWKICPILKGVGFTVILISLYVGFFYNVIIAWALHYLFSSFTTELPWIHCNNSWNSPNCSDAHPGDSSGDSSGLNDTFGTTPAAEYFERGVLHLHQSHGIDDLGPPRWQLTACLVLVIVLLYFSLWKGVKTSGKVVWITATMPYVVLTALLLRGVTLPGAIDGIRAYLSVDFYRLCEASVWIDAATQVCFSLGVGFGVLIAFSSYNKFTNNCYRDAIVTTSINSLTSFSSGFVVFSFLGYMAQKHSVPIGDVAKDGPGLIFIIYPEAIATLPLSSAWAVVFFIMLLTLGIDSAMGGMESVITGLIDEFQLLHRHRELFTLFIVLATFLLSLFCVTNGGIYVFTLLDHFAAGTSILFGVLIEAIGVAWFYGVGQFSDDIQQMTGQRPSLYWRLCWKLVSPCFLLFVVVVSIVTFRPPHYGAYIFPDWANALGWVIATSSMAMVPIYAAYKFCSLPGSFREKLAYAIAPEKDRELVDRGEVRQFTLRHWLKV

Compound	IC50 [1] [nM]	DAT/SERT ratio [2]	IC50 [2] [nM]	IC50 [3] [nM]	Concentration causing significant cell membrane integrity loss [4] [µM]	Concentration at which significant depletion of ATP was observed [5] [µM]	Concentration disrupting cellular respiration [6] [µM]	Concentration at which significant increase in mitochondrial superoxide was observed [7] [µM]	Amount of necrotic and apoptotic cells versus control at 2 mM [8]	Concentration causing significant reduction in cell viability (annexin V staining) [8] [µM]	Concentration decreasing maximal respiratory capacity [6] [µM]	Main mechanism of cell death [8]	ATP content at 0.5 mM ([5]; 0.5 mM)	Concentration showing signs of uncoupling of cellular respiration from ATP synthesis ([6]; OCR) [µM]
CNC(C)C(=O)c1ccc(F)cc1 (centres unmarked) [4-Fluoromethcathinone, 4-fluoromethcathinone]	350	5.6 (3.3–9.4)	6600	37000	> 2000	1000	> 2000	2000	did not significantly differ from control incubations	> 2000				
CC(N)Cc1ccc(F)cc1 (centres unmarked) [4-Fluoroamphetamine, 4-fluoroamphetamine]	150	3.6 (1.9–6.5)	3900	14000	2000	500		1000		1000	1000	Apoptosis		
CNC(C)C(=O)c1ccccc1 (centres unmarked) [Methcathinone, methcathinone]	120	34 (20–57)	1600	54000	> 2000	2000	> 2000	2000	did not significantly differ from control incubations	> 2000				
CC(N)Cc1ccccc1 (centres unmarked) [Amphetamine]					2000	1000		2000	did not significantly differ from control incubations					
CC(N)Cc1ccc(Cl)cc1 (centres unmarked) [4-Chloroamphetamine]	320	0.14 (0.07–0.25)	3600	490	500	100		500		500	100	necrosis	almost complete ATP depletion	
CNC(C)C(=O)c1ccc(Cl)cc1 (centres unmarked) [4-Chloromethcathinone, 4-chloromethcathinone]	430	0.45 (0.25–0.83)	5100	2300	2000	1000		1000		1000	1000	Apoptosis		1000
